# Test results as given in ChEMBL document CHEMBL3885881, “DrugMatrix”.
# Organism: Rattus norvegicus
# Experiment: DrugMatrix - Regimen: Daily Repeat
# Format: toxicity, organism-based, Sprague-Dawley
# Parameters: regimen Daily Repeat, gender Male, age 6-8 weeks
# Details: in vivo, po, route oral GAVAGE, vehicle .5 % CMC; for ABSOLUTE BASOPHIL / ABSOLUTE EOSINOPHIL / ABSOLUTE LYMPHOCYTE / ABSOLUTE MONOCYTE / ABSOLUTE SEGMENTED NEUTROPHIL / BASOPHIL / EOSINOPHIL / ERYTHROCYTE COUNT / HEMATOCRIT / HEMOGLOBIN / LEUKOCYTE COUNT / LYMPHOCYTE / MEAN CORPUSCULAR HEMOGLOBIN / MEAN CORPUSCULAR HEMOGLOBIN CONCENTRATION / MEAN CORPUSCULAR VOLUME / MONOCYTE / NEUTROPHIL / NUCLEATED RED BLOOD CELLS / PLATELET COUNT: tissue Blood; for ALANINE AMINOTRANSFERASE / ALBUMIN / ALKALINE PHOSPHATASE / ASPARTATE AMINOTRANSFERASE / BLOOD UREA NITROGEN / CARBON DIOXIDE / CHLORIDE / CHOLESTEROL / CREATINE PHOSPHOKINASE / CREATININE / GLUCOSE / LACTATE DEHYDROGENASE / LIPASE / PHOSPHORUS / POTASSIUM / SODIUM / TOTAL BILIRUBIN / TOTAL PROTEIN / URIC ACID: tissue Plasma
# [1] = 0.1 mg/kg, 120 h, dose level Low, time 5 day
# [2] = […], 72 h, dose 1.1 mg/Kg, dose level High, time 3 day
# [3] = […], 120 h, dose 1.1 mg/Kg, dose level High, time 5 day
compound,measurement,setting,value
CCCN1C[C@H](CSC)C[C@@H]2c3cccc4[nH]cc(c34)C[C@H]21 [PERGOLIDE],ABSOLUTE BASOPHIL,[1],0 CELLS/uL
same,ABSOLUTE EOSINOPHIL,[1],175 CELLS/uL
same,ABSOLUTE LYMPHOCYTE,[1],12836.67 CELLS/uL
same,ABSOLUTE MONOCYTE,[1],191.67 CELLS/uL
same,ABSOLUTE SEGMENTED NEUTROPHIL,[1],1130 CELLS/uL
same,BASOPHIL,[1],0%
same,EOSINOPHIL,[1],1%
same,ERYTHROCYTE COUNT,[1],6.04 x10E6/uL
same,HEMATOCRIT,[1],38.1%
same,HEMOGLOBIN,[1],14.47 G/DL
same,LEUKOCYTE COUNT,[1],14.33 x10E3/uL
same,LYMPHOCYTE,[1],89.67%
same,MEAN CORPUSCULAR HEMOGLOBIN,[1],24.1 pg
same,MEAN CORPUSCULAR HEMOGLOBIN CONCENTRATION,[1],38.07 G/DL
same,MEAN CORPUSCULAR VOLUME,[1],63.27 fL
same,MONOCYTE,[1],1.33%
same,NEUTROPHIL,[1],8%
same,NUCLEATED RED BLOOD CELLS,[1],0 /100WBC
same,PLATELET COUNT,[1],1209 x10E3/uL
same,ALANINE AMINOTRANSFERASE,[1],50.33 u/L
same,ALBUMIN,[1],4.13 G/DL
same,ALKALINE PHOSPHATASE,[1],348 u/L
same,ASPARTATE AMINOTRANSFERASE,[1],111.67 u/L
same,BLOOD UREA NITROGEN,[1],19.33 mg/dL
same,CARBON DIOXIDE,[1],24 mmol/L
same,CHLORIDE,[1],107 MEQ/L
same,CHOLESTEROL,[1],76.67 mg/dL
same,CREATINE PHOSPHOKINASE,[1],1319 u/L
same,CREATININE,[1],0.21 mg/dL
same,GLUCOSE,[1],156 mg/dL
same,LACTATE DEHYDROGENASE,[1],398.67 u/L
same,LIPASE,[1],10 u/L
same,PHOSPHORUS,[1],13.17 mg/dL
same,POTASSIUM,[1],6.18 MEQ/L
same,SODIUM,[1],145.93 MEQ/L
same,TOTAL BILIRUBIN,[1],0.2 mg/dL
same,TOTAL PROTEIN,[1],6.23 G/DL
same,URIC ACID,[1],2.13 mg/dL
same,ABSOLUTE BASOPHIL,[2],0 CELLS/uL
same,ABSOLUTE EOSINOPHIL,[2],0 CELLS/uL
same,ABSOLUTE LYMPHOCYTE,[2],11487 CELLS/uL
same,ABSOLUTE MONOCYTE,[2],388 CELLS/uL
same,ABSOLUTE SEGMENTED NEUTROPHIL,[2],1058.33 CELLS/uL
same,BASOPHIL,[2],0%
same,EOSINOPHIL,[2],0%
same,ERYTHROCYTE COUNT,[2],5.69 x10E6/uL
same,HEMATOCRIT,[2],36.2%
same,HEMOGLOBIN,[2],13.43 G/DL
same,LEUKOCYTE COUNT,[2],12.93 x10E3/uL
same,LYMPHOCYTE,[2],88.67%
same,MEAN CORPUSCULAR HEMOGLOBIN,[2],23.63 pg
same,MEAN CORPUSCULAR HEMOGLOBIN CONCENTRATION,[2],37.13 G/DL
same,MEAN CORPUSCULAR VOLUME,[2],63.6 fL
same,MONOCYTE,[2],3%
same,NEUTROPHIL,[2],8.33%
same,NUCLEATED RED BLOOD CELLS,[2],0 /100WBC
same,PLATELET COUNT,[2],1255.67 x10E3/uL
same,ALANINE AMINOTRANSFERASE,[2],71 u/L
same,ALBUMIN,[2],4.2 G/DL
same,ALKALINE PHOSPHATASE,[2],385.33 u/L
same,ASPARTATE AMINOTRANSFERASE,[2],116 u/L
same,BLOOD UREA NITROGEN,[2],16 mg/dL
same,CARBON DIOXIDE,[2],24.67 mmol/L
same,CHLORIDE,[2],104.67 MEQ/L
same,CHOLESTEROL,[2],68 mg/dL
same,CREATINE PHOSPHOKINASE,[2],406 u/L
same,CREATININE,[2],0.19 mg/dL
same,GLUCOSE,[2],157 mg/dL
same,LACTATE DEHYDROGENASE,[2],402.67 u/L
same,LIPASE,[2],10 u/L
same,PHOSPHORUS,[2],12.03 mg/dL
same,POTASSIUM,[2],6.59 MEQ/L
same,SODIUM,[2],145.53 MEQ/L
same,TOTAL BILIRUBIN,[2],0.2 mg/dL
same,TOTAL PROTEIN,[2],5.67 G/DL
same,URIC ACID,[2],1.73 mg/dL
same,ABSOLUTE BASOPHIL,[3],0 CELLS/uL
same,ABSOLUTE EOSINOPHIL,[3],64.33 CELLS/uL
same,ABSOLUTE LYMPHOCYTE,[3],14339 CELLS/uL
same,ABSOLUTE MONOCYTE,[3],275 CELLS/uL
same,ABSOLUTE SEGMENTED NEUTROPHIL,[3],888.33 CELLS/uL
same,BASOPHIL,[3],0%
same,EOSINOPHIL,[3],0.33%
same,ERYTHROCYTE COUNT,[3],6.31 x10E6/uL
same,HEMATOCRIT,[3],40.47%
same,HEMOGLOBIN,[3],15.03 G/DL
same,LEUKOCYTE COUNT,[3],15.57 x10E3/uL
same,LYMPHOCYTE,[3],92.33%
same,MEAN CORPUSCULAR HEMOGLOBIN,[3],23.77 pg
same,MEAN CORPUSCULAR HEMOGLOBIN CONCENTRATION,[3],37.23 G/DL
same,MEAN CORPUSCULAR VOLUME,[3],63.93 fL
same,MONOCYTE,[3],1.67%
same,NEUTROPHIL,[3],5.67%
same,NUCLEATED RED BLOOD CELLS,[3],0 /100WBC
same,PLATELET COUNT,[3],990.67 x10E3/uL
same,ALANINE AMINOTRANSFERASE,[3],44.33 u/L
same,ALBUMIN,[3],4.53 G/DL
same,ALKALINE PHOSPHATASE,[3],385.67 u/L
same,ASPARTATE AMINOTRANSFERASE,[3],82 u/L
same,BLOOD UREA NITROGEN,[3],17.33 mg/dL
same,CARBON DIOXIDE,[3],27.33 mmol/L
same,CHLORIDE,[3],108.33 MEQ/L
same,CHOLESTEROL,[3],76.67 mg/dL
same,CREATINE PHOSPHOKINASE,[3],501.67 u/L
same,CREATININE,[3],0.22 mg/dL
same,GLUCOSE,[3],154 mg/dL
same,LACTATE DEHYDROGENASE,[3],206.33 u/L
same,LIPASE,[3],9.33 u/L
same,PHOSPHORUS,[3],11.87 mg/dL
same,POTASSIUM,[3],6.29 MEQ/L
same,SODIUM,[3],147.9 MEQ/L
same,TOTAL BILIRUBIN,[3],0.23 mg/dL
same,TOTAL PROTEIN,[3],6.37 G/DL
same,URIC ACID,[3],1.63 mg/dL
